According to US20120021988A1, “METHODS FOR TREATING IMMUNE THROMBOCYTOPENIA” (priority 2007, published 2012):
Values joined by “and” are separate entries in the source; they are usually repeats but may differ in a detail not shown here. Equal values may be shown once. Ends that are not written are not given here.

Key:
[1] = test system: FcγIIb; assay: FcγR reverse ELISA: inhibition of PAP immune complex binding (Table 2); conditions: PAP/peptide mixture on FcγR coated plates; positive control 1.394
Description: (§1) For this reason, a “reverse ELISA” technique has been used to assess binding of the Fc region to ligands that bind to immune complexed IgG Fc. In a reverse ELISA, the enzyme (e.g., HRP) is not covalently conjugated to the Fc portion of the secondary antibody. Rather, a preformed immune complex of peroxidase-rabbit (or mouse) anti-peroxidase IgG (“PAP” complex) is used. […] In the reverse ELISA system, an Fc CH2-CH3 cleft binding ligand (e.g., purified human C1q) was bound to microwell plates. In the absence of competitor, PAP complexes bound to the immobilized ligand and the reaction between HRP and its substrate produces a signal. This signal was reduced by polypeptides and compounds that inhibited PAP binding to the immobilized ligand.
(§2) Once the reverse ELISA protocol was established using the C1q assay, the assay was redesigned using FcγIIa, FcγIIb and FcγIII in place of C1q. Highly purified FcγIIa, FcγIIb and FcγIII (R&D Systems, Minneapolis, Minn.) were immunoadsorbed onto plastic microwells. After optimizing the FcγR reverse ELISA system, simple competitive inhibition experiments using polypeptides provided herein were conducted to investigate their ability to inhibit binding of immune complexes to purified FcγR.
(§3) Falcon microtiter plates were coated with 1:10 dilutions of highly purified FcγIIa, FcγIIb and FcγIII and incubated for 24 hours. The plates were washed and then blocked with 5×BSA blocking solution (Alpha Diagnostic International, San Antonio, Tex.) for 24 hours. PAP immune complexes were formed as described in Example 1. PAP (100 μl) were pre-incubated with 100 μl of peptide for one hour. PAP/peptide mixtures were added to the FcγR coated plates and incubated for one hour. After washing, plates were incubated with ABTS substrate (Quidel Corp.) for 15 minutes and read at 405 nm.

[2] = test system: FcγIIIa; assay: as above; conditions: PAP/peptide mixture on FcγR coated plates; positive control 1.588
Description: as §1, §2, §3

[3] = test system: FcγIIa (R131 allele); assay: as above; conditions: PAP/peptide mixture on FcγR coated plates; positive control 1.599
Description: as §1, §2, §3

[4] = test system: human C1q; assay: Reverse ELISA: inhibition of PAP immune complex binding to C1q coated plates; conditions: for OD 405 nm: PAP pre-incubated with peptide or C1q one hour, C1q coated plates, lower OD = more inhibition, positive control 2.355
Description: as §1
PAP complexes were formed mixing 2 μl of rabbit anti-peroxidase (Sigma Chemicals, St. Louis, Mo.; Cat. No. P7899) with 50 μl of peroxidase (Sigma-Aldrich, Cat. No. P6782) in 1 ml distilled water. PAP (100 μl) were pre-incubated with 100 μl of peptide for one hour, 100 μl were pre-incubated with 100 μl of peptide or human C1q (Quidel Corp., San Diego, Calif.) for one hour. The C1q/PAP and peptide/PAP mixtures (100 μl) were incubated with C1q coated plates for 30 minutes. After washing, plates were incubated with ATBS (Quidel Corp.) for 15 minutes and read at 405 nm.

[5] = test system: mice having induced ITP; assay: In vivo treatment of ITP induced by rabbit anti-platelet antibody, platelet counting by flow cytometry; set-up: species or system CD-1 mice; conditions: for Platelet counts, individual mice: intraperitoneal, 24 hours; for Platelet counts, mean: 3 mice, ITP alone mean 170.7, Nil 1016; for Effect on induced ITP: first experiment, Table 4, 10× and 100× molar
Method: Mice: CD-1 mice approximately 6-8 weeks of age were obtained from Charles River (Montreal). The animals were housed 3-5 per cage in filter-topped cages. The temperature and relative humidity were maintained at […] and 35-70%, respectively, and a 12 hour light/dark cycle was used. The mice were fed rodent chow and water ad libitum.
Anti-platelet antibodies to induce ITP: A rabbit anti-platelet antibody (Inter-Cell Technologies, Inc., Jupiter, Fla.; Cat. No. A31440) was used to induce ITP. Each mouse received 10 μl antibody-containing serum, diluted with 190 μl PBS for injection, such that the final injection volume was 200 μl for all groups injected with anti-platelet antibody.
On the day of use, one vial of rabbit anti-platelet antibody was removed from the freezer, placed in a 22° C. water bath, and shaken. The tube was checked every 30 seconds, and when it was completely thawed it was placed in a microcentrifuge and centrifuged at 10,000×g (11,000 rpm) for 10 minutes at 4° C. The supernatant fluid was transferred to a new tube and the pellet was discarded. The supernatant was placed on ice until used or diluted, as appropriate. Unused portions of the sera were discarded.
Therapeutic treatment of ITP: IVIg was used as a standard control treatment for the ITP induced by the rabbit anti-platelet antibody. The IVIg was Gamimmune® N, 10%. Treatment with IVIg consisted of an intraperitoneal injection of 50 mg (500 μl) IVIg, a dose that was equivalent to a dose of 2,000 mg/kg body weight.
Platelet enumeration: All mice were bled via the saphenous vein. 50 μL of blood were collected into 450 μL PBS/1% EDTA. The blood was further diluted in PBS/1% EDTA. Platelets were enumerated by flow cytometry with a Guava microcapillary cytometer (Guava EasyCyteMini, Guava Technologies, Inc., Hayward, Calif.), using forward scatter (FSC) versus side scatter (SSC) to gate platelets.
Peptides used to inhibit ITP: Peptides having the amino acid sequences set forth in SEQ ID NO:2 ([…]), SEQ ID NO:20 ([…]), and a control peptide in which Trp7, Val13 and Trp14 of SEQ ID NO:20 were replaced by alanines ([…]; SEQ ID NO:57) were tested for their ability to inhibit ITP. Alanine substation of Val13 and Trp14 causes a decrease in binding affinity (measured by ΔΔG, where G=Gibbs Energy) of greater than 1,000 fold.
Peptides were stored at −20° C. until the day of use. On the day of use, peptides were removed from the freezer, placed in a 22° C. water bath, shaken, and checked every 30 seconds for thawing. When thawed, the peptides were placed on ice until use. For samples that received a 10× dose of peptide, the following were sequentially added to a 1.5 ml polypropylene Eppendorf tube: 623 μl PBS (pH 7.22), 35 μL rabbit anti-plaletet IgG, and 42 μl peptide, with mixing after each addition. For samples having a 100× dose of peptide, the following were added sequentially to a 1.5 ml polypropylene Eppendorf tube: 245 μl PBS (pH 7.22), 35 μL rabbit anti-plaletet IgG, and 420 μl peptide, with mixing after each addition. The peptides were incubated for at least 30 minutes at 22° C. prior to injection into mice. (A 15 minute incubation in the laboratory, transport of the mixtures to the Vivarium, and injection took roughly an additional 30 minutes.)
The final volume of each peptide mixture was 700 μL, which was sufficient for injection of 3 mice (200 μl/mouse, plus 100 μl to cover dead volume). For the 10× dose/mouse of peptide, 12 μg of peptide (12 μl of 1 mg/ml solution) was mixed with 100 μg of the rabbit anti-platelet IgG (10 μl of 10 mg/ml solution). The volume of 700 μl was about 3.5× the volume injected per mouse (200 μl). To obtain the dose of peptide and rabbit IgG for the 700 μl final volume, dose of peptide or Rabbit IgG per mouse was multiplied by 3.5 (e.g., 12 μl peptide/mouse×3.5=42 μl, 10 μl Rabbit IgG/mouse×3.5=35 μl). PBS (623 μl, pH 7.22) was added to make up the final volume 700 μl. […]

[6] = target: PAP complex: preformed immune complex of peroxidase and rabbit anti-peroxidase IgG (horseradish) (UniProt P00433); assay: reverse ELISA competition: PAP pre-incubated with peptide, then on plate coated with FcγIIa (R131 allele); signal is PAP left bound to the receptor
[7] = target: PAP complex: preformed immune complex of peroxidase and rabbit anti-peroxidase IgG (horseradish) (UniProt P00433); assay: reverse ELISA competition: PAP pre-incubated with peptide, then on plate coated with FcγIIIa; signal is PAP left bound to the receptor
[8] = target: PAP complex: preformed immune complex of peroxidase and rabbit anti-peroxidase IgG (horseradish) (UniProt P00433); assay: reverse ELISA competition: PAP pre-incubated with peptide, then on plate coated with FcγIIb; signal is PAP left bound to the receptor
[9] = target: PAP complex: preformed immune complex of peroxidase and rabbit anti-peroxidase IgG (horseradish) (UniProt P00433); assay: reverse ELISA competition: PAP pre-incubated with peptide, then on C1q-coated plate; signal is PAP left bound to immobilised human C1q (lower = more inhibition)
[10] = ITP + 10X molar amount of peptide
[11] = ITP + 100X molar amount of peptide

UniProt P00433, sequence (P00433 31-338, one chain of several): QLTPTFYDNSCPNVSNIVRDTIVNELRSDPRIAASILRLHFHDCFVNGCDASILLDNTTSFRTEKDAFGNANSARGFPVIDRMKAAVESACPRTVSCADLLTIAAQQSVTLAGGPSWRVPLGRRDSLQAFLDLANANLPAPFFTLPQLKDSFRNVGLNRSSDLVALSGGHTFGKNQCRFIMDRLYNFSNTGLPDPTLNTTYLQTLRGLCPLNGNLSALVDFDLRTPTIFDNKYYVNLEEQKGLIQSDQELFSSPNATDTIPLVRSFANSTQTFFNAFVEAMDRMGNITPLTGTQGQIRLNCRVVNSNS

Row | OD405 [6] [OD405] | OD405 [7] [OD405] | OD405 [8] [OD405] | OD 405 nm [9] [OD 405 nm] | Molecule | OD405 FcγIIb [1] | OD405 FcγIIIa [2] | OD405 FcγIIa (R131 allele) [3] | OD 405 nm [4] | further results
1 | – | – | – | – | APPCAFHLGELVWCT (cysteine pairing not given here) [SEQ ID NO:18] | 0.380 | 0.880 | 0.605 | 0.983 | –
2 | – | – | – | – | APPCARHLGELVWCT (cysteine pairing not given here) [SEQ ID NO:16] | 0.768 | 0.709 | 0.956 | 0.567 | Inhibition of C1q binding (ranking in words) ([4]; summary of Table 1): next best result
3 | – | – | – | – | APPCAWHLGELVWCT (cysteine pairing not given here) [SEQ ID NO:14] | 0.562 | 0.530 | 0.658 | 1.148 | –
4 | – | – | – | – | APPDCAAHLGELAACT [SEQ ID NO:57, reference compound] | – | – | – | – | Platelet counts, individual mice ([5]; ITP + 10X molar amount of peptide, listed as CP): 1.99e+11 L⁻¹ and 1.91e+11 L⁻¹ and 1.43e+11 L⁻¹; Platelet counts, mean [5, 10]: 1.777e+11 L⁻¹; Platelet counts, individual mice ([5]; ITP + 100X molar amount of peptide, listed as CP): 1.55e+11 L⁻¹ and 1.6e+11 L⁻¹ and 1.79e+11 L⁻¹; Platelet counts, mean [5, 11]: 1.647e+11 L⁻¹; Effect on induced ITP [5]: no effect
5 | – | – | – | – | Asp-Cys-Ala-Phe-His-Leu-Gly-Glu-Leu-Val-Trp-Cys-Thr (DCAFHLGELVWCT) [SEQ ID NO:3] | 0.510 | 0.810 | 0.660 | 0.859 | –
6 | – | – | – | – | Asp-Cys-Ala-Trp-His-Leu-Gly-Glu-Leu-Val-Trp-Cys-Thr [SEQ ID NO:2] | 0.532 | 0.741 | 0.561 | 1.100 | Platelet counts, individual mice ([5]; ITP + 10X molar amount of peptide, listed as BP): 1.63e+11 L⁻¹ and 1.17e+11 L⁻¹ and 2.33e+11 L⁻¹; Platelet counts, mean [5, 10]: 1.71e+11 L⁻¹; Platelet counts, individual mice ([5]; ITP + 100X molar amount of peptide, listed as BP): 1.55e+11 L⁻¹ and 1.25e+11 L⁻¹ and 1.94e+11 L⁻¹; Platelet counts, mean [5, 11]: 1.58e+11 L⁻¹; Effect on induced ITP [5]: no effect
7 | 0.605 | 0.88 | 0.38 | 0.983 | APPCAFHLGELVWCT [Peptide … (SEQ ID NO:18)] | – | – | – | – | –
8 | 0.66 | 0.81 | 0.51 | 0.859 | DCAFHLGELVWCT [Peptide … (SEQ ID NO:3)] | – | – | – | – | –
9 | 0.956 | 0.709 | 0.768 | 0.567 | APPCARHLGELVWCT [Peptide … (SEQ ID NO:16)] | – | – | – | – | –
10 | 0.658 | 0.53 | 0.562 | 1.15 | APPCAWHLGELVWCT [Peptide … (SEQ ID NO:14)] | – | – | – | – | –
